According to patent publication US12522601B2, “1,3,4-oxadiazole derivative compounds as histone deacetylase 6 inhibitor, and the pharmaceutical composition comprising the same” (CHONG KUN DANG PHARMACEUTICAL CORP., priority 2020, dated 2026):

Columns and labels:
human recombinant HDAC6 = biological target: T1, human recombinant HDAC6 (Homo sapiens, UniProt Q9UBN7); test: In vitro HDAC enzyme activity inhibition assay, HDAC6 (HDAC Fluorimetric Drug Discovery Kit); assay type: biochemical; settings: for HDAC6 Selectivity (fold): HDAC6 versus HDAC1; for IC50: human recombinant HDAC6, same protocol as the HDAC1 test
T1 construct: purchased Calbiochem Inc. 382180
T1 sequence (Q9UBN7 1-1215): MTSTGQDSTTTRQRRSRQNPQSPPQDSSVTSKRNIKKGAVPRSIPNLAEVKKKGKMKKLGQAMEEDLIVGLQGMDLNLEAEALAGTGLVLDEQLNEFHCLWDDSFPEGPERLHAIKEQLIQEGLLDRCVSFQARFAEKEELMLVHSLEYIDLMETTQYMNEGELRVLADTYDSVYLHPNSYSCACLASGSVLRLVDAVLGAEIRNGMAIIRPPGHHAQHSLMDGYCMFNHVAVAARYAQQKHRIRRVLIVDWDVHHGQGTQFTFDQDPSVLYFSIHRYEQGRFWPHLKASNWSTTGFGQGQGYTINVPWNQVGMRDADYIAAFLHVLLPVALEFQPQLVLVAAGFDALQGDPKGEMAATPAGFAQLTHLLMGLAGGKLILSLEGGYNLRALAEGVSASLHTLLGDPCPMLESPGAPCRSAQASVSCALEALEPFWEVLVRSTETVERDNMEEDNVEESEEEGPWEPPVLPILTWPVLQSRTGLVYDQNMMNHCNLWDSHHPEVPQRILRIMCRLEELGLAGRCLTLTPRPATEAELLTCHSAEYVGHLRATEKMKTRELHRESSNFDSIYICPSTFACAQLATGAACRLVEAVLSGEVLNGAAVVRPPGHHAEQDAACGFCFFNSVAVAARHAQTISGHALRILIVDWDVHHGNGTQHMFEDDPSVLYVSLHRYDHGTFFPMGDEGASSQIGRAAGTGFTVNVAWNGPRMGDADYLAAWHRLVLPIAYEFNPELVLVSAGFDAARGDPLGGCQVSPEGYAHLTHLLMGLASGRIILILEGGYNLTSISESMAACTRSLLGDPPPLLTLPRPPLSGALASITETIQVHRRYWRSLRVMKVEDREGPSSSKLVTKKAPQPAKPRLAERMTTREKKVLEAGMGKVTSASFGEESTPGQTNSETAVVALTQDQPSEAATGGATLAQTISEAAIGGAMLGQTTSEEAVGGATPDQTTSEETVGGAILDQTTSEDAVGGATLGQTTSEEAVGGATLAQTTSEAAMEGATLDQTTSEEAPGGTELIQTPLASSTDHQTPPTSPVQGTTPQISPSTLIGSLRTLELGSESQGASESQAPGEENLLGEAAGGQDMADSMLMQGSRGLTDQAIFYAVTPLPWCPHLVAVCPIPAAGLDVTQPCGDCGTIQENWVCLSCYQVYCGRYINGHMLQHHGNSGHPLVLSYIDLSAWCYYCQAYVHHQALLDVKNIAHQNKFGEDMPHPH
Protocol: (§1) In order to confirm the selectivity of the compounds represented by Chemical Formula I of the present invention to HDAC6 through HDAC1 and HDAC6 enzyme activity inhibition experiments, a comparison experiment was performed using the material that has already been developed as a control group.
(§2) HDAC enzyme activity was measured using the HDAC Fluorimetric Drug Discovery Kit (Enzo Life Sciences, Inc., BML-AK511, 516). For the HDAC1 enzyme activity test, human recombinant HDAC1 (BML-SE456) was used as an enzyme source and Fluor de Lys®-SIRT1 (BNL-KI177) was used as a substrate. After dispensing 5-fold diluted compounds into a 96-well plate, 0.3 μg of enzyme and 10 μM substrate were added to each well of the plate and allowed to react at 30° C. for 60 minutes. Next, Fluor de Lys® Developer II (BML-KI176) was added and reacted for 30 minutes to complete the reaction, and then the fluorescence values (Ex 360, Em 460) were measured using a multi-plate reader (Flexstation 3, Molecular Device). The HDAC6 enzymes were tested using human recombinant HDAC6 (382180) from Calbiochem Inc., according to the same protocol as the HDAC1 enzyme activity test method. With respect to the final result values, respective IC50 values were calculated using GraphPad Prism 4.0 program, and results thereof were summarized in Table 5 below.

human recombinant HDAC1 = biological target: T2, human recombinant HDAC1 (Homo sapiens, UniProt Q13547); test: In vitro HDAC enzyme activity inhibition assay, HDAC1 (HDAC Fluorimetric Drug Discovery Kit); assay type: biochemical; settings: human recombinant HDAC1, Fluor de Lys-SIRT1 substrate 10 μM, 30° C. for 60 minutes
T2 construct: purchased Enzo Life Sciences, Inc. BML-SE456
Protocol: as §1, §2

T2 sequence (Q13547 whole entry): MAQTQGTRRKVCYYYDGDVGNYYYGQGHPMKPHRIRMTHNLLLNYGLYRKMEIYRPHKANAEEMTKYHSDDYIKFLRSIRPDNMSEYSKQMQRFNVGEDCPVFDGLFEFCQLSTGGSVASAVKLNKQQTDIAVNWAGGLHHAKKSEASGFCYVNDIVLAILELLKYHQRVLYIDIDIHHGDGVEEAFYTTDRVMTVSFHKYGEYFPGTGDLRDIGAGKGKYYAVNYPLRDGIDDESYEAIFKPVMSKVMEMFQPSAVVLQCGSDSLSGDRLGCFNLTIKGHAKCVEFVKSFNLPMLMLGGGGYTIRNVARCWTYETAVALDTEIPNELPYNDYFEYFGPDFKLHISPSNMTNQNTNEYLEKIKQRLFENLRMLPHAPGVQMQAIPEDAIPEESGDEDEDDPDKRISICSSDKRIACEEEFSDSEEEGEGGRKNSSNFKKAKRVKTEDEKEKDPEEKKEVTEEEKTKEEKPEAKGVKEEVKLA

Row | SMILES | HDAC6 Selectivity (fold) (human recombinant HDAC6) | IC50 (human recombinant HDAC6) [nM] | IC50 (human recombinant HDAC1) [µM]
1 | CN1CCN(C(=O)N(Cc2cn3ccc(-c4nnc(C(F)F)o4)cc3n2)c2ccccc2)CC1 [Compound 3784, N-((7-(5-(difluoromethyl)-1,3,4-oxadiazol-2-yl)imidazo[1,2-a]pyridin-2-yl)methyl)-4-methyl-N-phenylpiperazine-1-carboxamide] | 727 | 68.8 | > 50
2 | O=C(N1CCN(C2COC2)CC1)N(Cc1cn2ccc(-c3nnc(C(F)F)o3)cc2n1)c1ccccc1 [Compound 3785] | 437 | 114 | > 50
3 | CCN1CCN(C(=O)N(Cc2cn3ccc(-c4nnc(C(F)F)o4)cc3n2)c2ccccc2)CC1 [Compound 4033, N-((7-(5-(difluoromethyl)-1,3,4-oxadiazol-2-yl)imidazo[1,2-a]pyridin-2-yl)methyl)-4-ethyl-N-phenylpiperazine-1-carboxamide] | 538 | 93 | > 50
4 | CC(C)N1CCN(C(=O)N(Cc2cn3ccc(-c4nnc(C(F)F)o4)cc3n2)c2ccccc2)CC1 [Compound 4034, N-((7-(5-(difluoromethyl)-1,3,4-oxadiazol-2-yl)imidazo[1,2-a]pyridin-2-yl)methyl)-4-isopropyl-N-phenylpiperazine-1-carboxamide] | 485 | 103 | > 50
5 | CC(CO)N1CCN(C(=O)N(Cc2cn3ccc(-c4nnc(C(F)F)o4)cc3n2)c2ccccc2)CC1 (stereo not drawn) [Compound 4035, N-((7-(5-(difluoromethyl)-1,3,4-oxadiazol-2-yl)imidazo[1,2-a]pyridin-2-yl)methyl)-4-(1-hydroxypropan-2-yl)-N-phenylpiperazine-1-carboxamide] | 168 | 298 | > 50
6 | O=C(N1CCN(C2CCC2)CC1)N(Cc1cn2ccc(-c3nnc(C(F)F)o3)cc2n1)c1ccccc1 [Compound 4036, 4-cyclobutyl-N-((7-(5-(difluoromethyl)-1,3,4-oxadiazol-2-yl)imidazo[1,2-a]pyridin-2-yl)methyl)-N-phenylpiperazine-1-carboxamide] | 321 | 156 | > 50
7 | O=C(N1CCN(C2CCCCC2)CC1)N(Cc1cn2ccc(-c3nnc(C(F)F)o3)cc2n1)c1ccccc1 [Compound 4037, 4-cyclohexyl-N-((7-(5-(difluoromethyl)-1,3,4-oxadiazol-2-yl)imidazo[1,2-a]pyridin-2-yl)methyl)-N-phenylpiperazine-1-carboxamide] | 404 | 124 | > 50

Next, values leading:

Row | HDAC6 Selectivity (fold) (human recombinant HDAC6) | IC50 (human recombinant HDAC6) [nM] | IC50 (human recombinant HDAC1) [µM] | SMILES
8 | 382 | 131 | > 50 | O=C(N1CCN(C2CCOCC2)CC1)N(Cc1cn2ccc(-c3nnc(C(F)F)o3)cc2n1)c1ccccc1 [Compound 4038, N-((7-(5-(difluoromethyl)-1,3,4-oxadiazol-2-yl)imidazo[1,2-a]pyridin-2-yl)methyl)-N-phenyl-4-(tetrahydro-2H-pyran-4-yl)piperazine-1-carboxamide]
9 | 338 | 148 | > 50 | O=C(N1CCN(C2CCC(F)(F)CC2)CC1)N(Cc1cn2ccc(-c3nnc(C(F)F)o3)cc2n1)c1ccccc1 [Compound 4039, 4-(4,4-difluorocyclohexyl)-N-((7-(5-(difluoromethyl)-1,3,4-oxadiazol-2-yl)imidazo[1,2-a]pyridin-2-yl)methyl)-N-phenylpiperazine-1-carboxamide]
10 | 421 | 119 | > 50 | CC(=O)N1CCN(C(=O)N(Cc2cn3ccc(-c4nnc(C(F)F)o4)cc3n2)c2ccccc2)CC1 [Compound 4040, 4-acetyl-N-((7-(5-(difluoromethyl)-1,3,4-oxadiazol-2-yl)imidazo[1,2-a]pyridin-2-yl)methyl)-N-phenylpiperazine-1-carboxamide]
